The subject of series [1] is B16 melanoma cells derived from a mouse. As to the kind of experiment: Restraint of melanin production in cultured B16 melanoma cells.
Series [2] relates to tyrosinase, derived from mushroom. Put plainly: Inhibition of enzyme activity of mushroom tyrosinase. The format is biochemical. As to conditions: concentration of 0.01-0.1%.
A short description of series [3]: Solubility in water. It counts as physicochemical. An excerpt: The whitening and beautifying preparation suitable for use in a bath according to the present invention means a preparation which can be dissolved in hot water in a bathtub upon bathing to use it, and can be provided as tablets, granules, powder, liquid or the like. It can be formulated according to any process generally used.

Series [4] relates to tyrosinase in the B16 melanoma cells. Put plainly: Amount of tyrosinase in B16 melanoma cells by SDS-PAGE. It counts as cell-based, mouse. As to conditions: culture systems added with teprenone.
Where [5] appears, read: Mus musculus, B16, read-out: production of melanin restrained, to control.

`OC[C@H]1O[C@@H](Oc2ccc(O)cc2)[C@H](O)[C@@H](O)[C@@H]1O` [arbutin]: in series [1] (arbutin combined with teprenone, equals 10-30 ppm), the “concentration essential for attaining the same effect of the combined use as kojic acid” value was 1×10^-3 -3×10^-3%.

As to `CC(=O)CCC=C(C)CCC=C(C)CCC=C(C)CCC=C(C)C` [teprenone, geranylgeranylacetone], the “action to inhibit the enzyme activity of tyrosinase” value in series [2] is given as “did not exhibit any action to inhibit the enzyme activity”. In addition, the solubility in water entry in series [3] was “insoluble in water”. For the same compound, in series [1] (setting [5]), the inhibition at 0.0001 % came out at 85%, the inhibition at 0.0002 % was 80% and the inhibition at 0.0003 % is 70%. Further, in series [1] (cells cultured again in a system containing no teprenone, melanin greatly increased), the “reversibility of the melanin inhibiting action” value is listed as “reversible inhibiting action”. In addition, the cytotoxicity result in series [1] (sample concentrations 1×10^-4 to 3×10^-4 %) is reported as “no cytotoxicity was recognized”. The “amount of tyrosinase in the B16 melanoma cells” value in series [4] is given as “decreased in proportion to the concentration of teprenone added”.

(Values after patent US5560907A, “Whitening embellisher” (Eisai Co., Ltd., priority 1992, dated 1996).)
